The subject of data set [1] is Hepatitis C virus. Kind of data set: Antiviral activity against Hepatitis C virus genotype 1a by replicon assay. To be noted: subtype 1a. It is filed as functional, organism-based, Hepacivirus hominis. A general note: Replicon systems follow genome replication, usually without infectious particles.
Data set [2] can be described thus: Half life in Sprague-Dawley rat at 5 mg/kg, iv. Type of data set: ADME, organism-based. On the set-up: dose 5 mg/kg, route intravenous. To be noted: in vivo.
The nature of data set [3]: Oral bioavailability in Sprague-Dawley rat at 5 mg/kg. Type of data set: ADME, organism-based. To be noted: in vivo.
A short description of data set [4]: Clearance in Sprague-Dawley rat at 5 mg/kg, iv. Also on record: dose 5 mg/kg, route intravenous. The following applies: in vivo. It is filed as ADME, organism-based.
In data set [5] the test system is Hepatitis C virus. Briefly: Antiviral activity against Hepatitis C virus genotype 1b by replicon assay. It is filed as functional, organism-based, Hepacivirus hominis.
Data set [6] is described as follows: Half life in Sprague-Dawley rat at 5 mg/kg, po. It is filed as ADME, organism-based. On the set-up: dose 5 mg/kg, route oral. To be noted: in vivo.
Data set [7] can be described thus: Cmax in Sprague-Dawley rat at 5 mg/kg, po. Type of data set: ADME, organism-based. Also on record: dose 5 mg/kg, route oral. To be noted: in vivo.
Data set [8] can be described thus: AUC in Sprague-Dawley rat at 5 mg/kg, po. It is filed as ADME, organism-based. Also on record: dose 5 mg/kg, route oral. To be noted: plasma.
Data set [9] in a line: Clearance in dog at 2.5 mg/kg, iv. To be noted: in vivo. Also on record: dose 2.5 mg/kg, route intravenous. Type of data set: ADME, organism-based, Canis lupus familiaris.
A short description of data set [10]: Oral bioavailability in dog at 2.5 mg/kg. The following applies: in vivo.
Data set [11] in a line: Cmax in dog at 2.5 mg/kg, po. To be noted: in vivo.
For data set [12], the system named is Hepatitis C virus. Kind of data set: Antiviral activity against Hepatitis C virus genotype 1b by replicon assay in presence of human plasma. Type of data set: functional, organism-based, Hepacivirus hominis.
A short description of data set [13]: Solubility in aqueous buffer. Type of data set: physicochemical.
The nature of data set [14]: AUC in dog at 2.5 mg/kg, po. The following applies: plasma.
Data set [15] can be described thus: Half life in dog at 2.5 mg/kg, po. The following applies: in vivo.
Data set [16] in a line: Half life in dog at 2.5 mg/kg, iv. It is filed as ADME, organism-based, Canis lupus familiaris. Also on record: dose 2.5 mg/kg, route intravenous. To be noted: in vivo.
The subject of data set [17] is Hepatitis C virus. Briefly: Antiviral activity against Hepatitis C virus genotype 1b harboring NS5A L28M mutant infected in chimpanzee assessed as reduction in viral load at 2.5 mg/kg, iv administered every 8 hrs measured after 32 hrs. Type of data set: functional, organism-based. Also on record: dose 2.5 mg/kg. To be noted: Hepacivirus hominis.
Data set [18] has as its system Hepatitis C virus. Briefly: Antiviral activity against Hepatitis C virus genotype 1b harboring NS5A Q24R/K26R double mutant infected in chimpanzee assessed as reduction in viral load at 2.5 mg/kg, iv administered every 8 hrs measured after 32 hrs. It is filed as functional, organism-based. Also on record: dose 2.5 mg/kg. To be noted: Hepacivirus hominis.
The subject of data set [19] is Hepatitis C virus. Briefly: Antiviral activity against Hepatitis C virus genotype 1b harboring NS5A Y93C/K26R double mutant infected in chimpanzee assessed as reduction in viral load at 2.5 mg/kg, iv administered every 8 hrs measured after 32 hrs. Also on record: dose 2.5 mg/kg. To be noted: Hepacivirus hominis. It is filed as functional, organism-based.
Data set [20] has as its system Hepatitis C virus. Briefly: Antiviral activity against Hepatitis C virus genotype 1b infected in chimpanzee assessed as log reduction in viral load at 2.5 mg/kg, iv administered every 8 hrs measured after 32 hrs relative to control. It is filed as functional, Hepacivirus hominis.
Data set [21] concerns Hepatitis C virus. Kind of data set: Antiviral activity against Hepatitis C virus genotype 1b harboring NS5A K26R mutant infected in chimpanzee assessed as reduction in viral load at 2.5 mg/kg, iv administered every 8 hrs measured after 32 hrs. Type of data set: functional, organism-based. On the set-up: dose 2.5 mg/kg. The following applies: Hepacivirus hominis.
Data set [22] is described as follows: Half life in iv dosed chimpanzee. It is filed as ADME, organism-based, Pan troglodytes. To be noted: in vivo.

Values after ≈ are worked out from the molar mass of the structure shown. Active and inactive are the calls of the source.

By EC50 is commonly meant the concentration giving half of the maximal effect. What is called half-life is the time needed for the level to fall by half in the phase considered. Read a low half-life as rapid decline. The bioavailability is the share of a dose that reaches the circulation, judged against a reference dose that is usually intravenous. A high value points to much systemic uptake. In general, clearance refers to the rate of elimination divided by the concentration. A higher clearance goes with a high capacity for elimination. In general, Cmax refers to the highest concentration seen after dosing. A word on the AUC: it is the area under the concentration-time curve, a measure of exposure. Higher therefore signals more exposure. The term solubility denotes the dissolved amount per volume that the medium holds.

On to `CC(C)c1ccc2c(Nc3cc(C(=O)N[C@@H](C)C4CCCCC4)ccc3Sc3ccc(N)cc3)ncnc2n1`, for which the EC50 in the data set on Hepatitis C virus [1] came out at 240 nM; with Hepatitis C virus [5], 45 nM. Also, the half-life in data set [2] is 0.5 h; in [6] it was 0.8 h. Also, the bioavailability in data set [3] turned out to be 5%. Besides, the clearance in data set [4] is 21.5 mL/min/kg. In data set [7], this molecule registered a Cmax of 200 ng/mL. Also, the AUC in data set [8] stood at 250 ng·h/mL.
Turning to `COC(=O)Nc1ccc(Sc2ccc(C(=O)N[C@@H](C)c3ccccc3)cc2Nc2ncnc3nc(C(C)C)ccc23)cc1`, the EC50 with Hepatitis C virus [1] worked out at 42 nM; in the data set with Hepatitis C virus [5], 4 nM. This molecule had a half-life in data set [2] of 0.4 h. Further, the bioavailability in data set [3] was determined as 0%. The same molecule showed a clearance in data set [4] of 12.8 mL/min/kg.
For the molecule `CC(C)c1ccc2c(Nc3cc(C(=O)N[C@@H](C)c4ccccc4)ccc3Sc3ccc(N)cc3)ncnc2n1`, the clearance in data set [9] was 4.33 mL/min/kg; in data set [4], 5.5 mL/min/kg. Further, the figures for the EC50 in the data set with Hepatitis C virus [1], in the data set on Hepatitis C virus [12] and in the data set on Hepatitis C virus [5] were 45 nM, 1200 nM and 7 nM, respectively. The half-life is 1.6 h in data set [2], 2.7 h in data set [6], 3 h in data set [15] and 3.2 h in data set [16]. For the same molecule, the figures for the bioavailability in data set [10] and in data set [3] were 18.8% and 42.4%, respectively. Besides, the Cmax in data set [11] was determined as 490 ng/mL; in data set [7] it was 1480 ng/mL. In [13], this molecule gave a solubility of 5 µM (≈ 2.67 µg/mL). The AUC in data set [14] came to 2350 ng·h/mL; in [8], 6490 ng·h/mL.
Turning to `Cc1ccc([C@H](C)NC(=O)c2ccc(Sc3ccc(N)cc3)c(Nc3ncnc4nc(C(C)C)ccc34)c2)cc1`, the figures for the EC50 in the data set on Hepatitis C virus [1] and in the data set with Hepatitis C virus [5] were 22 nM and 5 nM, respectively. Further, the half-life in data set [2] was 0.7 h; in [6], 2.6 h. The bioavailability in data set [3] came out at 12.2%. This molecule gave a clearance in [4] of 18.3 mL/min/kg. Also, the Cmax in data set [7] came out at 160 ng/mL. In data set [8], this molecule displayed an AUC of 600 ng·h/mL.
As for `CC(C)c1ccc2c(Nc3cc(C(=O)NC(C)c4ccc(C(F)(F)F)cc4)ccc3Sc3ccc(N)cc3)ncnc2n1` (stereo unspecified), the EC50 in the data set with Hepatitis C virus [1] was 66 nM; in the data set on Hepatitis C virus [5], 41 nM.
For `CC(C)c1ccc2c(Nc3cc(C(=O)NC(C)c4ccccc4F)ccc3Sc3ccc(N)cc3)ncnc2n1` (stereo unspecified) the same measures were 280 nM and 20 nM.
Turning to `CC(C)c1ccc2c(Nc3cc(C(=O)N[C@@H](C)c4ccccc4)ccc3Sc3ccc(NS(C)(=O)=O)cc3)ncnc2n1`, the concentration for a half-maximal effect (EC50) came to 349 nM in the data set on Hepatitis C virus [1] and 51 nM with Hepatitis C virus [5].
Regarding `CC(C)c1ccc2c(Nc3cc(C(=O)N[C@H](c4ccccc4)C(F)(F)F)ccc3Sc3ccc(N)cc3)ncnc2n1`, the EC50 in the data set on Hepatitis C virus [1] worked out at 13 nM; in the data set with Hepatitis C virus [5] it was 2 nM. Also, the figures for the half-life in data set [2] and in data set [6] were 2.9 h and 1.8 h, respectively. Moreover, in [3], the bioavailability is 18.7%. Also, the clearance in [4] is 4 mL/min/kg. In [7], this molecule registered a Cmax of 930 ng/mL. The molecule further gave an AUC in [8] of 3890 ng·h/mL.
As to `CC(=O)Nc1ccc(Sc2ccc(C(=O)N[C@@H](C)c3ccccc3)cc2Nc2ncnc3nc(C(C)C)ccc23)cc1`, the EC50 in the data set with Hepatitis C virus [1] was 5030 nM; in the data set on Hepatitis C virus [5], 149 nM.
As to `Cc1cccc(C(C)NC(=O)c2ccc(Sc3ccc(N)cc3)c(Nc3ncnc4nc(C(C)C)ccc34)c2)c1` (stereo unspecified), the EC50 in the data set on Hepatitis C virus [1] came to 100 nM; in the data set on Hepatitis C virus [5], 10 nM.
On to `C[C@H](NC(=O)c1ccc(Sc2ccc(N)cc2)c(Nc2ncnc3ncccc23)c1)c1ccccc1`, for which the 50% effective concentration (EC50) came out at 7890 nM with Hepatitis C virus [1] and 6250 nM with Hepatitis C virus [5].
Taken in the same sequence, the figures for `CC[C@@H](NC(=O)c1ccc(Sc2ccc(N)cc2)c(Nc2ncnc3nc(C(C)C)ccc23)c1)c1ccccc1` were 266 nM and 127 nM.
Taken in the same sequence, the figures for `CC(C)c1ccc2c(Nc3cc(C(=O)NC(C)c4cccc(Br)c4)ccc3Sc3ccc(N)cc3)ncnc2n1` (stereo unspecified) were 33 nM and 9 nM.
For `CC(C)c1ccc2c(Nc3cc(C(=O)NC(C)c4ccncc4)ccc3Sc3ccc(N)cc3)ncnc2n1` (stereo unspecified) the same measures were 1170 nM and 331 nM.
In the case of `C[C@H](NC(=O)c1ccc(Sc2ccc(N)cc2)c(Nc2ncnc3nc(C(C)(C)C)ccc23)c1)c1ccccc1`, the EC50 turned out to be 46 nM in the data set with Hepatitis C virus [1] and 3 nM in the data set on Hepatitis C virus [5].
As to `CC(C)c1ccc2c(Nc3cc(C(=O)N[C@H]4CCc5ccccc54)ccc3Sc3ccc(N)cc3)ncnc2n1`, the EC50 in the data set with Hepatitis C virus [1] worked out at 451 nM; in the data set on Hepatitis C virus [5] it was 54 nM.
For `COc1cccc([C@H](C)NC(=O)c2ccc(Sc3ccc(N)cc3)c(Nc3ncnc4nc(C(C)C)ccc34)c2)c1` the same measures were 24 nM and 4 nM.
Consider `CC(C)c1ccc2c(Nc3cc(C(=O)NC(C)c4cccc(F)c4)ccc3Sc3ccc(N)cc3)ncnc2n1` (stereo unspecified), for which the EC50 with Hepatitis C virus [1] stood at 92 nM; in the data set on Hepatitis C virus [5] it was 15 nM.
Take `Cc1ccccc1C(C)NC(=O)c1ccc(Sc2ccc(N)cc2)c(Nc2ncnc3nc(C(C)C)ccc23)c1` (stereo unspecified): the EC50 worked out at 300 nM in the data set with Hepatitis C virus [1] and 30 nM in the data set on Hepatitis C virus [5].
Taken in the same sequence, the figures for `CC(C)c1ccc2c(Nc3cc(C(=O)N[C@@H](C)c4ccc5ccccc5c4)ccc3Sc3ccc(N)cc3)ncnc2n1` were 340 nM and 30 nM.
Turning to `CC(C)c1ccc2c(Nc3cc(C(=O)N[C@@H](C)c4ccc(Br)cc4)ccc3Sc3ccc(N)cc3)ncnc2n1`, the EC50 was 16 nM in the data set with Hepatitis C virus [1] and 4 nM in the data set on Hepatitis C virus [5]. The results for the half-life in data set [2] and in data set [6] were 1.9 h and 2 h, respectively. In data set [3], this molecule displayed a bioavailability of 24.9%. In data set [4], the clearance is 5.67 mL/min/kg. For the same molecule, in data set [7], the Cmax amounted to 330 ng/mL. For the same molecule, the AUC in [8] was 3840 ng·h/mL.
For the molecule `CC(C)c1ccc2c(Nc3cc(C(=O)N[C@@](C)(CO)c4ccccc4)ccc3Sc3ccc(N)cc3)ncnc2n1`, the EC50 in the data set with Hepatitis C virus [1] is 188 nM; in the data set on Hepatitis C virus [12], 34 nM; with Hepatitis C virus [5] it was 2 nM. For the same molecule, the outcome in the data set with Hepatitis C virus [17], with Hepatitis C virus [18], in the data set with Hepatitis C virus [19] and with Hepatitis C virus [21] was inactive. The half-life was 1.1 h in data set [2], 2.7 h in [6] and 4.1 h in data set [22]. For the same molecule, in data set [3], the bioavailability was determined as 13.3%. In the data set with Hepatitis C virus [20], the FC is 1.65. The same molecule displayed a solubility in [13] of 19.7 µM (≈ 11.1 µg/mL). The molecule also had a clearance in data set [4] of 12.5 mL/min/kg. In addition, the Cmax in data set [7] was 320 ng/mL. The same molecule had an AUC in [8] of 900 ng·h/mL.
Take `COc1ccccc1C(C)NC(=O)c1ccc(Sc2ccc(N)cc2)c(Nc2ncnc3nc(C(C)C)ccc23)c1` (stereo unspecified): the figures for the EC50 in the data set on Hepatitis C virus [1] and in the data set with Hepatitis C virus [5] were 610 nM and 40 nM, respectively.
